The values below come from US7524880B2, “Crystalline form of a substituted pyrrolidine compound” (Theravance, Inc., priority 2004, dated 2009).

Structures are written as SMILES. pKi: −log10 of the molar value.

Test [1] deals with pilocarpine-evoked salivation. As to the kind of experiment: Inhalation guinea pig salivation assay. It counts as in vivo. As for the experimental part: Guinea pigs (Charles River, Wilmington, Mass.) weighing 200-350 g were acclimated to the in-house guinea pig colony for at least 3 days following arrival. Test compound or vehicle were dosed via inhalation (IH) over a 10 minute time period in a pie shaped dosing chamber (R+S Molds, San Carlos, Calif.). Test solutions were dissolved in sterile water and delivered using a nebulizer filled with 5.0 mL of dosing solution. Guinea pigs were restrained in the inhalation chamber for 30 minutes. During this time, guinea pigs were restricted to an area of approximately 110 cm^2. This space was adequate for the animals to turn freely, reposition themselves, and allow for grooming. […] Upon completion of nebulization, guinea pigs were evaluated at 1.5, 6, 12, 24, 48, or 72 hrs after treatment.
Guinea pigs were anesthetized one hour before testing with an intramuscular (IM) injection of a mixture of ketamine 43.75 mg/kg, xylazine 3.5 mg/kg, and acepromazine 1.05 mg/kg at an 0.88 mL/kg volume. […] Saliva was collected for 10 minutes, at which point the gauze pad was weighed and the difference in weight recorded to determine the amount of accumulated saliva (in mg). The mean amount of saliva collected for animals receiving the vehicle and each dose of test compound was calculated. […] Results were calculated using result means (n=3 or greater). […]

For the next test, the target named is T1, hM3 receptor (Homo sapiens, UniProt P20309).
T1 construct: expressed in transfected cells
As to the kind of experiment: Blockade of agonist-mediated calcium release via FLIPR. Particulars: CHO cells stably expressing the hM3 receptor, oxotremorine EC90. Format: cell-based. An excerpt:
C. Blockade of Agonist-Mediated Calcium Release Via FLIPR Assays
Muscarinic receptor subtypes (M1, M3 and M5 receptors), which couple to Gq proteins, activate the phospholipase C (PLC) pathway upon agonist binding to the receptor. As a result, activated PLC hydrolyzes phosphatyl inositol diphosphate (PIP2) to diacylglycerol (DAG) and phosphatidyl-1,4,5-triphosphate (IP3), which in turn generates calcium release from intracellular stores, i.e., endoplasmic and sarcoplasmic reticulum. […] This fluorescence event is measured in real time by the FLIPR, which detects the change in fluorescence from a monolayer of cells cloned with human M1 and M3, and chimpanzee M5 receptors. Antagonist potency is determined by the ability of antagonists to inhibit agonist-mediated increases in intracellular calcium. […]
To determine antagonist potency, the dose-dependent stimulation of intracellular Ca^2+ release for oxotremorine was first determined so that antagonist potency can later be measured against oxotremorine stimulation at an EC90 concentration. […]
The parameters used for the FLIPR were: exposure length of 0.4 seconds, laser strength of 0.5 watts, excitation wavelength of 488 nm, and emission wavelength of 550 nm. Baseline was determined by measuring the change in fluorescence for 10 seconds prior to addition of agonist. […]

As a reminder, the pKi is −log10 of the Ki, conventionally taken in molar units.

T1 sequence (P20309 whole entry): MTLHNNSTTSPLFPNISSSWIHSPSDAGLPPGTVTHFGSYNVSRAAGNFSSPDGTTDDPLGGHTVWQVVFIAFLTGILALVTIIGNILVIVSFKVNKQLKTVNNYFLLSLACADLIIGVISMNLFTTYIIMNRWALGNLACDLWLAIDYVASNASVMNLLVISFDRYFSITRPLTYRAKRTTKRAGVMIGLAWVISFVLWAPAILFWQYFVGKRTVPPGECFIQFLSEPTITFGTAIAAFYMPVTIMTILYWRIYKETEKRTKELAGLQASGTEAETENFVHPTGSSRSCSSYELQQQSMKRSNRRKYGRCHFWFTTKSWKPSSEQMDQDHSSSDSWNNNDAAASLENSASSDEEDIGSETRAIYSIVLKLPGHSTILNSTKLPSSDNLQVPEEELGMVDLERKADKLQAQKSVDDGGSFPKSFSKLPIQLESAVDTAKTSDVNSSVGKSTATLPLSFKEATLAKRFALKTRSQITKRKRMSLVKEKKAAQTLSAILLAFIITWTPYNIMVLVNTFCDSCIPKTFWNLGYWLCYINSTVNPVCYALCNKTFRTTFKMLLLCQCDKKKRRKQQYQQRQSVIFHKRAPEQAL

As to `CNCCCCCCCCN1CC[C@@H](C(C(N)=O)(c2ccccc2)c2ccccc2)C1` [compound of formula I, 2-[(S)-1-(8-methylaminooctyl)pyrrolidin-3-yl]-2,2-diphenylacetamide], the “apparent lung selectivity index (ratio of anti-sialagogue ID50 to bronchoprotective ID50)” value in test [1] is recorded as “greater than 5”. Besides, on hM3 receptor, the negative logarithm of the Ki (pKi) was over 8.30.
